Here are results for 1 compound from patent US20080107625A1, “Inhibitors of Hepatitis C Virus” (Bristol-Myers Squibb Company, priority 2006, published 2008).

In this assay the test system is HCV replicon (Renilla luciferase reporter) in HUH-7 cells. The assay can be described thus: HCV replicon luciferase reporter assay. Format: cell-based, HCV strain 1b. The following applies: Huh-7, 96 h; 4 days. From the text:
An HCV replicon whole cell system was established as described by Lohmann V, Korner F, Koch J, Herian U, Theilmann L, Bartenschlager R., Science 285(5424): 110-3 (1999). This system enabled us to evaluate the effects of our HCV Protease compounds on HCV RNA replication. Briefly, using the HCV strain 1b sequence described in the Lohmann paper (Assession number: AJ238799), an HCV cDNA was synthesized by Operon Technologies, Inc. (Alameda, Calif.), and the full-length replicon was then assembled in plasmid pGem9zf(+) (Promega, Madison, Wis.) using standard molecular biology techniques. […]
As a secondary assay, EC50 determinations from the replicon FRET assay were confirmed in a replicon luciferase reporter assay. […] Following 4 days in a 37° C./5% CO2 incubator, cells were analyzed for Renilla Luciferase activity using the Promega Dual-Glo Luciferase Assay System. […] Plates were read on a Packard TopCount NXT using a luminescence program.
The percentage inhibition was calculated using the formula below: • % control=average luciferase signal in experimental wells (+compound) • average luciferase signal in DMSO control wells (−compound)
The values were graphed and analyzed using XLfit to obtain the EC50 value.

On to `CC(C)(C)OC(=O)N[C@H]1CN(C2CC2)CCC/C=C\C2C[C@@]2(C(=O)NS(=O)(=O)C2CC2)NC(=O)[C@@H]2C[C@@H](Oc3ccccn3)CN2C1=O` (stereo partly shown) [Compound 1], for which a half-maximal response (EC50) required 202 nM.

The EC50 is the midpoint of the concentration-response curve. Low readings indicate greater potency, high ones weaker potency.
